These are literature values, as cited in publication PMC4435776 (Journal of cardiovascular translational research, 2014).

This data set relates to Mouse ESC. The settings on record: compared with the effect of CsA; ref [56].

In the case of 11R-VIVIT, the “effect on stem cells of other calcineurin/NFAT inhibitors” value is on record as “absence of a significant effect”.
As for `C=CC[C@@H]1/C=C(\C)C[C@H](C)C[C@H](OC)[C@H]2O[C@@](O)(C(=O)C(=O)N3CCCC[C@H]3C(=O)O[C@H](/C(C)=C/[C@@H]3CC[C@@H](O)[C@H](OC)C3)[C@H](C)[C@@H](O)CC1=O)[C@H](C)C[C@@H]2OC` [tacrolimus], the “effect on stem cells of other calcineurin/NFAT inhibitors” value is “absence of a significant effect”.
